From patent US20080025972A1, “Treating sex steriod responsive disorders” (priority 2006, published 2008)

Experiments:
[1] = tested on: prostate cancer; experiment: Treatment of patients with prostate cancer (Working Examples); type: in vivo, human
[2] = tested on: PSA protein expression in LNCaP cells; experiment: PSA protein expression in LNCaP cells (immunoblot); type: cell-based; conditions: nitric oxide synthesis inhibited; DHT 10 nmol/L 24 hours
Protocol: The experiments of Background Example 4 were repeated but instead of determining androgen receptor activation, PSA level was measured by PSA protein expression in LNCaP cells. LNCaP cells were incubated in phenol red-free RPMI cell culture medium containing 5% charcoal-stripped fetal bovine serum (CSS) for 48 hours and then treated with dihydrotestosterone (DHT) (10 nmol/L) or vehicle control (ethanol) for 24 hours. Immunoblots were conducted using anti-PSA antibodies to measure PSA protein expression. Same filters were immunoblotted using anti-actin antibodies as control to establish equal loading of proteins.

[3] = tested on: LNCaP cells; conditions: 5-10 nmol/L, 48 hours, wild type cells
Protocol: (§1) Cell proliferation was determined in cellular assays carried out as follows:
(§2) LNCaP cells (obtained from ATCC) and seeded at 2.5×10^4/well were incubated in charcoal-stripped serum for 24-48 hours prior to stimulation with DHT (5-10 nmole/L) for an additional 48 hours. The number of viable cells (that exclude trypan blue) was counted using a light microscope and a hemocytometer.

[4] = tested on: e-NOS overexpressing prostate cancer cells; conditions: 5-10 nmol/L
Protocol: as §1, §2

[5] = tested on: androgen receptor; conditions: stimulated 24 hours
Protocol: A luciferase reporter assay as described in Kasbohm, E. A., et al., Journal of Biological Chemistry 289,11583-11589 (2005), was used to detect androgen receptor activation.
As a control, the following was carried out. Androgen receptor in the form of prostate cancer cells was incubated with androgen under the following conditions.
Cells were seeded in 100-mm dishes and transfected at 70% confluence using DMRIE-C Reagent (Invitrogen). Transfections were carried out with cDNAs encoding the probasin or ARR2 luciferase (1 μg) and SV40-Renilla luciferase reporter plasmid (Promega) (10 ng) together with empty vector or the indicated gene of interest using a total of 6 μg of DNA/plate. At the end of transfection, cells were equally divided into 6-well plates and allowed to attach. The culture medium was replaced after 24 hours with starvation medium (phenol red-free RPMI 1640 cell culture medium) containing 5% charcoal-stripped fetal bovine serum, 1% penicillin/streptomycin, and 10 mM HEPES buffer, pH 7.5), and identical cell populations, in duplicate, were stimulated with androgen or vehicle for an additional 24 hours. Luciferase activities in cell lysates were measured using the Dual Luciferase assay system (Promega; Madison, Wis.) and were normalized by the Renilla activities and protein concentrations of the samples.

[6] = tested on: breast cancer; experiment: Treatment of patient with breast cancer (Working Example X); type: in vivo, human; conditions: person, 40 mg PO BID, over 6 months
[7] = target: T1, androgen receptor protein (Homo sapiens, UniProt P10275); experiment: S-nitrosylation of purified androgen receptor, biotin switch assay; type: biochemical; conditions: anaerobic conditions; GSH as control
T1 construct: purchased Cambridge Bioscience, England
T1 sequence (P10275 1-920): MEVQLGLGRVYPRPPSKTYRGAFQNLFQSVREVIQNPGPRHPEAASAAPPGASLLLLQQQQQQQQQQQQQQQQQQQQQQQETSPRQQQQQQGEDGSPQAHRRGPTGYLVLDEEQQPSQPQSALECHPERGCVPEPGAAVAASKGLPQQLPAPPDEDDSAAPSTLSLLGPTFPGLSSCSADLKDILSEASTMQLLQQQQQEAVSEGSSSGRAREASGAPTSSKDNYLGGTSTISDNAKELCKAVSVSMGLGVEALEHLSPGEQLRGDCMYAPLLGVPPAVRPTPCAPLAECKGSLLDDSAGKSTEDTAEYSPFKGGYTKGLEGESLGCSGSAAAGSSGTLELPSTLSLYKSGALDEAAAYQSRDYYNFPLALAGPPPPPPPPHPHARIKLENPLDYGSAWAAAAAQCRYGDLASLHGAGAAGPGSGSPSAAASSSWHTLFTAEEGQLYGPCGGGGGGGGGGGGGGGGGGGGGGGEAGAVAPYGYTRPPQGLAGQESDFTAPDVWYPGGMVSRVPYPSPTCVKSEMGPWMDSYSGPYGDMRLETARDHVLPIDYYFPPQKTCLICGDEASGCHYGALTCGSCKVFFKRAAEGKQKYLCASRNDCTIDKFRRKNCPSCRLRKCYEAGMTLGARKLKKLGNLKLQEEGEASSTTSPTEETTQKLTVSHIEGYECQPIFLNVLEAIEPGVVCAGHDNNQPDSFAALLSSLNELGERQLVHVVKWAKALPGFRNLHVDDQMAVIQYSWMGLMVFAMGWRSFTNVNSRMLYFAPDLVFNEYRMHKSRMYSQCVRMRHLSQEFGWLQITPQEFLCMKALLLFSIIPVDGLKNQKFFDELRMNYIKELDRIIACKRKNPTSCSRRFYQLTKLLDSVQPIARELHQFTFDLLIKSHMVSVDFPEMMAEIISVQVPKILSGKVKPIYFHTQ
Source text: Purified androgen receptor protein (obtained from Cambridge Bioscience, England) was exposed to nitric oxide by means of contact with nitrosoglutathione (GSNO) under anaerobic conditions. Glutathione (GSH) was used as a control. […] Cell Biol 3, 193-197 (2001).

Q: How did the PSA level drop ([1]; person, 150 mg orally 4 times/day, over 4 months) turn out when N[C@H](CCC(=O)N[C@H](CS)C(=O)NCC(=O)O)C(=O)O [D-glutathione] was run?
A: 50%

Q: COC(=O)[C@@H](N)CCCNC(=N)N[N+](=O)[O-] [L-NAME] was tested. Which PSA expression [2] did it give?
A: more PSA was expressed

Q: For C[C@]12CCC(=O)C[C@@H]1CC[C@@H]1[C@@H]2CC[C@]2(C)[C@@H](O)CC[C@@H]12 [androgen, dihydrotestosterone], which cell growth [3] is on record?
A: increased cell growth

Q: What about the cell growth [4] of the same molecule?
A: no effect on cell growth

Q: What about the “androgen receptor activation by androgen (control case)” value [5] of the same molecule?
A: activated androgen receptor

Q: Which disease course ([1]; person with body metastases, busaralin treatment) does the source give for CCNC(=O)[C@@H]1CCCN1C(=O)[C@H](CCCNC(=N)N)NC(=O)[C@H](CC(C)C)NC(=O)[C@@H](COC(C)(C)C)NC(=O)[C@H](Cc1ccc(O)cc1)NC(=O)[C@H](CO)NC(=O)[C@H](Cc1c[nH]c2ccccc12)NC(=O)[C@H](Cc1cnc[nH]1)NC(=O)[C@@H]1CCC(=O)N1 [busaralin] here?
A: the disease progresses

Q: For O=[N+]([O-])O[C@H]1CO[C@H]2[C@@H]1OC[C@H]2O[N+](=O)[O-] [isosorbide dinitrate], which PSA level ([1]; person, 20 mg PO BID, over 3 months) is on record?
A: stabilizes

Q: With O=[N+]([O-])O[C@@H]1CO[C@H]2[C@@H]1OC[C@@H]2O [isosorbide mononitrate] as the molecule, how does the lung metastases [6] read?
A: regress

Q: What about the PSA level decline ([1]; person, 40 mg PO BID, 3 months) of the same molecule?
A: 50%

Q: How did the “progression of the disease measured by PSA and bony metastases” value ([1]; topical 0.8 mg/hour, after progression on busaralin) turn out when O=[N+]([O-])OCC(CO[N+](=O)[O-])O[N+](=O)[O-] [nitroglycerin] was run?
A: slows

Q: Which “S-nitrosylation of androgen receptor” value [7] does the source give for N[C@@H](CCC(=O)N[C@@H](CSN=O)C(=O)NCC(=O)O)C(=O)O [nitrosoglutathione] here?
A: S-Nitrosylation of androgen receptor was detected

Q: What about the PSA level decrease ([1]; human, in vivo, po) of the same molecule?
A: 50%
